Laboratory results published in patent EP3516395B1, “METHOD FOR DETERMINING AFFINITY BETWEEN LIGANDS AND A TARGET” (Plant Advanced Technologies Pat, priority 2016, dated 2018).

Tested on: tyrosinase de champignon
Experiment: Relative affinity by competitive binding, ultrafiltration and UPLC-MS/UV (Example 1)
Conditions: equimolar ligands; for Facteur de normalisation, solution traitée: NFTB, peak area UV 270 nm relative to reference ligand moracénine B; for Affinités relatives: RA = NFTB/NFeq, reference ligand moracénine B
Experimental: Une solution de travail de tyrosinase de champignon à 1.25 mg/mL est préparée en dissolvant de la poudre de l'enzyme lyophilisée dans 50 mM d'acétate d'ammonium, avec un pH de 7.0. L'échantillon est préparé en utilisant l'un des solvants suivants : des glycols, DMSO (diméthylsulfoxide), l'éthanol, pur ou en solution dans l'eau. La concentration dans l'échantillon des ligands initiaux est équimolaire et doit être dans la gamme de 0,75 à 1 mM. Les ligands choisis étaient des inhibiteurs connus de la tyrosinase isolés depuis des racines de murier noir (Morus nigra) : la moracénine A, moracénine B et la kuwanone C. Un échantillon de référence est préparé également en diluant l'échantillon de 10 à 20 fois dans une solution d'eau et d'un quart de volume d'acétonitrile.
• 1. Étape de préconditionnement - Des puits à membrane filtrante sont pré-conditionnées avec un volume de 500 µl d'une solution à 85% d'acétate d'ammonium et 15% d'éthanol qui est passé à travers la membrane avec une centrifugation de 14000 g pendant 60 secondes. • 2. Étape de liaison - La préparation de tyrosinase (1.25 mg/mL, 75 µL) est mélangée avec 5 µl de l'échantillon dans un tube d'Eppendorf en plastique, puis est incubée pendant 5 min. Dans ce mélange, on a 9,16 µM de tyrosinase et une gamme de 46,88 µM à 62,5 µM de ligands (moracénine A, moracénine B et kuwanone C) soit un ratio ligands/cible allant de 5,12 à 6,83. • 3. Étape de lavage - le mélange de l'enzyme et de l'échantillon est déposé dans un puits préconditionné à l'étape de préconditionnement, puis centrifugé à 14000 g jusqu'à l'élimination de l'essentiel du solvant. Les complexes enzyme-ligands restent à la surface de la membrane du filtre puis sont à nouveau suspendu dans un volume de 100 µL de la même solution à 85% d'acétate d'ammonium et 15% d'éthanol et centrifugé à 14000 g jusqu'à élimination du solvant. Cette procédure est répétée trois fois et élimine tous les composés qui ne sont pas liés à l'enzyme. • 4. Étape de séparation - Les complexes enzyme-ligands retenus dans le filtre sont à nouveau suspendus dans un volume de 10 µL d'eau ultra-pure, puis sont mélangés avec un volume de 40 µL d'acétonitrile pour dénaturer et précipiter l'enzyme et, en même temps libérer les ligands. Le mélange est centrifugé à 21000 g pendant 10 min pour séparer le précipité du surnageant. • 5. Étape d'analyse - Ledit surnageant formant la solution traitée est analysé par chromatographie en phase liquide couplée à une spectrométrie de masse, connue également par l'acronyme UPLC-MS. L'échantillon de référence est analysé également de la même manière, en utilisant les mêmes conditions d'analyse. Les affinités relatives sont calculées selon la méthode décrite ci-après. De préférence, l'échantillon de référence et la solution traitée sont analysés séquentiellement pour éliminer des dispersions dues aux réglages de l'appareillage.
Une analyse par chromatographie en phase liquide fournit un chromatogramme tel que montré par les figures 1 et 2. Le chromatogramme représente une intensité de signal en fonction du temps de rétention dans une colonne. Le signal présente différents pics d'intensité variable. Chaque pic est associé à l'un des ligands présent dans l'échantillon et la solution traitée. • 1. Normalisation de l'intensité du signal analytique pour les ligands dans l'échantillon de référence. Pour chaque chaque ligand CEi dans l'échantillon de référence, on établit des facteurs de normalisation NFeq dudit ligand CEi par comparaison au ligand de référence REF, selon l'équation suivante : NFeq,CEi = (ISeq,CEi)/(ISeq,REF) [formula] où : • NF est un facteur de normalisation; • ISeq,CEi est l'intensité du signal analytique pour le ligand CEi dans l'échantillon; • ISeq,REF est l'intensité du signal analytique pour le ligand de référence REF dans l'échantillon. L'intensité peut être choisie parmi l'aire du pic ou la valeur maximale du pic. Le facteur de normalisation du ligand de référence vaut toujours 1. • 2. […]

With `CC(C)=CCc1c(-c2ccc(O)cc2O)oc2c(CC=C(C)C)c(O)cc(O)c2c1=O` [kuwanone C] the “Facteur de normalisation, solution traitée” value was 0,78 and the Affinités relatives was 1,07.
With moracénine B the “Facteur de normalisation, solution traitée” value was 1,00 and the Affinités relatives was 1,00.
